Source: ChEMBL document CHEMBL1201862, “PubChem BioAssay data set” (2004)
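In this assay, cells in 96-well plates receive the compound at five concentrations for 48 hours. Endpoints are linearly interpolated between the surrounding concentrations. Abbreviation: GI50, concentration required for 50% inhibition of growth.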 Calls of active or inactive are those of the source. Cut-off read from the data, not from the text of the source: active = GI50 up to about 1.1 µM and inactive = higher.

Experiments:
Experiment in all cases: DTP human tumour cell line panel, 48 h
[1] = system: A549
[2] = system: HL-60
[3] = system: PC-3
[4] = system: NCI-H23
[5] = system: HOP-62
[6] = system: OVCAR-4
[7] = system: CAKI-1
[8] = system: COLO 205
[9] = system: SK-MEL-28
[10] = system: SF-295
[11] = system: M14
[12] = system: MCF7
[13] = system: NCI/ADR-RES
[14] = system: SF-268
[15] = system: SR
[16] = system: SK-OV-3
[17] = system: K562
[18] = system: ACHN
[19] = system: T47D
[20] = system: U-251
[21] = system: RXF 393
[22] = system: LOX IMVI
[23] = system: KM12
[24] = system: SW-620
[25] = system: DU-145
[26] = system: IGROV-1
[27] = system: TK-10
[28] = system: UACC-257
[29] = system: EKVX
[30] = system: MDA-N
[31] = system: HCT-116
[32] = system: Hs-578T
[33] = system: NCI-H226
[34] = system: MOLT-4
[35] = system: NCI-H460
[36] = system: HCT-15
[37] = system: A498
[38] = system: SF-539
[39] = system: RPMI-8226
[40] = system: CCRF-CEM
[41] = system: SNB-75
[42] = system: HCC 2998
[43] = system: Malme-3M
[44] = system: HT-29
[45] = system: UO-31
[46] = system: MDA-MB-231
[47] = system: OVCAR-3
[48] = system: BT-549
[49] = system: OVCAR-5
[50] = system: 786-0
[51] = system: SK-MEL-5
[52] = system: UACC-62
[53] = system: SNB-19
[54] = system: SN12C
[55] = system: SK-MEL-2
[56] = system: HOP-92
[57] = system: OVCAR-8
[58] = system: MDA-MB-435

Measured: GI50

CC(C)/C(Cl)=N\OC(=O)Nc1ccccc1F
16.2 µM: [36]
active: [40] 0.741 µM
inactive: [1] 18.7 µM | [2] 1.68 µM | [3] 17.2 µM | [4] 17.7 µM | [5] > 41.1 µM | [6] 17.3 µM | [7] 21.3 µM | [8] 2.03 µM | [9] 16.6 µM | [10] 16.3 µM | [11] 5.73 µM | [12] 5.64 µM | [13] 15.2 µM | [14] 21 µM | [15] 2.25 µM | [16] 19.2 µM | [17] 1.95 µM | [18] 12.4 µM | [19] 20.9 µM | [20] 17.3 µM | [21] 3.15 µM | [22] 2.55 µM | [23] 20.8 µM | [24] 1.88 µM | [25] 16.4 µM | [26] 17.7 µM | [27] 14.5 µM | [28] 18.3 µM | [29] 16.9 µM | [30] 16.6 µM | [31] 8.45 µM | [32] 25.9 µM | [33] 15.1 µM | [34] 2.82 µM | [35] 18.7 µM | [37] 14.9 µM | [38] 17.3 µM | [39] 6.04 µM | [41] 10.2 µM | [42] 14.9 µM | [43] 3.94 µM | [44] 24.3 µM | [45] 16.1 µM | [46] 8.81 µM | [47] 17.7 µM | [48] 14.3 µM | [49] 18.5 µM | [50] 16.4 µM | [51] 14.5 µM | [52] 17.3 µM | [53] > 42.9 µM | [54] 10 µM | [55] 18.1 µM | [56] 2.16 µM | [57] 17.2 µM

O=c1n(CCO)nc2n1CCCN2
inactive: [1] > 100 µM | [58] > 100 µM | [2] > 100 µM | [3] > 100 µM | [4] > 100 µM | [5] > 100 µM | [6] > 100 µM | [8] > 100 µM | [9] > 100 µM | [10] > 100 µM | [11] > 100 µM | [12] > 100 µM | [14] > 100 µM | [15] > 100 µM | [16] > 100 µM | [17] > 100 µM | [18] > 100 µM | [19] > 100 µM | [20] > 100 µM | [21] > 100 µM | [22] > 100 µM | [23] > 100 µM | [24] > 100 µM | [25] > 100 µM | [26] > 100 µM | [27] > 100 µM | [29] > 100 µM | [30] > 100 µM | [31] > 100 µM | [32] > 100 µM | [33] > 100 µM | [34] > 100 µM | [35] > 100 µM | [38] > 100 µM | [39] > 100 µM | [40] > 100 µM | [41] > 100 µM | [42] > 100 µM | [43] > 100 µM | [44] > 100 µM | [45] > 100 µM | [46] > 100 µM | [47] > 100 µM | [48] > 100 µM | [49] > 100 µM | [50] > 100 µM | [51] > 100 µM | [52] > 100 µM | [53] > 100 µM | [54] > 100 µM | [55] > 100 µM | [56] > 100 µM | [57] > 100 µM
> 100 µM: [36]
